≈ marks a conversion by molar mass, not a printed value. Calls of active or inactive are those of the source. The rule behind the calls is not given here.
Experiments:
Streptococcus pneumoniae [1] = assay: Antibacterial activity against Streptococcus pneumoniae Mef 1790; assay type: functional
Streptococcus pneumoniae [2] = assay: Antibacterial activity against Streptococcus pneumoniae Mef 2382; assay type: functional
Streptococcus pneumoniae [3] = assay: Antibacterial activity against Streptococcus pneumoniae Mef 2880; assay type: functional
Streptococcus pneumoniae [4] = assay: Antibacterial activity against Streptococcus pneumoniae Mef 3449; assay type: functional
Streptococcus pneumoniae [5] = assay: Antibacterial activity against Streptococcus pneumoniae Mef 3855; assay type: functional
Streptococcus pneumoniae [6] = assay: Antibacterial activity against Streptococcus pneumoniae Mef 4126; assay type: functional
Streptococcus pneumoniae [7] = assay: Antibacterial activity against Streptococcus pneumoniae Mef 4331; assay type: functional
Streptococcus pneumoniae [8] = assay: Antibacterial activity against Streptococcus pneumoniae Mef 6966; assay type: functional
Streptococcus pneumoniae [9] = assay: Antibacterial activity against Streptococcus pneumoniae Mef 9142; assay type: functional
Streptococcus pneumoniae [10] = assay: Antibacterial activity against Streptococcus pneumoniae Mef 9959; assay type: functional
Streptococcus pneumoniae [11] = assay: Antibacterial activity against Streptococcus pneumoniae Mef 10095; assay type: functional
Streptococcus pneumoniae [12] = assay: Antibacterial activity against Streptococcus pneumoniae Erm 6396; assay type: functional
Streptococcus pneumoniae [13] = assay: Antibacterial activity against Streptococcus pneumoniae Erm 6388; assay type: functional
Streptococcus pneumoniae [14] = assay: Antibacterial activity against Streptococcus pneumoniae Erm S 4297; assay type: functional
Streptococcus pneumoniae [15] = assay: Antibacterial activity against Streptococcus pneumoniae Erm S 4085; assay type: functional
Streptococcus pneumoniae [16] = assay: Antibacterial activity against Streptococcus pneumoniae Erm 867; assay type: functional
Streptococcus pneumoniae [17] = assay: Antibacterial activity against Streptococcus pneumoniae Erm 2218; assay type: functional
Streptococcus pneumoniae [18] = assay: Antibacterial activity against Streptococcus pneumoniae Erm 3120; assay type: functional
Streptococcus pneumoniae [19] = assay: Antibacterial activity against Streptococcus pneumoniae Erm 4290; assay type: functional
Streptococcus pneumoniae [20] = assay: Antibacterial activity against Streptococcus pneumoniae Erm 4589; assay type: functional
Streptococcus pneumoniae [21] = assay: Antibacterial activity against Streptococcus pneumoniae Erm 5354; assay type: functional
Streptococcus pneumoniae [22] = assay: Antibacterial activity against Streptococcus pneumoniae Erm 5399; assay type: functional
Streptococcus pneumoniae [23] = assay: Antibacterial activity against Streptococcus pneumoniae Erm 5415; assay type: functional
Streptococcus pneumoniae [24] = assay: Antibacterial activity against Streptococcus pneumoniae Erm 5554; assay type: functional
Streptococcus pneumoniae [25] = assay: Antibacterial activity against Streptococcus pneumoniae Erm 7985; assay type: functional
Streptococcus pneumoniae [26] = assay: Antibacterial activity against Streptococcus pneumoniae Erm 8257; assay type: functional
Streptococcus pneumoniae [27] = assay: Antibacterial activity against Streptococcus pneumoniae Erm 8339; assay type: functional
Streptococcus pneumoniae [28] = assay: Antibacterial activity against Streptococcus pneumoniae Erm 8919; assay type: functional
Haemophilus influenzae [29] = assay: Antibacterial activity against Haemophilus influenzae 2762; assay type: functional
Streptococcus pneumoniae [30] = assay: Antibacterial activity against Streptococcus pneumoniae Erm 8947; assay type: functional
Streptococcus pneumoniae [31] = assay: Antibacterial activity against Streptococcus pneumoniae Erm 10279; assay type: functional
Streptococcus pneumoniae [32] = assay: Antibacterial activity against Streptococcus pneumoniae Erm 5590; assay type: functional
Staphylococcus aureus [33] = assay: Antibacterial activity against Staphylococcus aureus 29213; assay type: functional
Staphylococcus aureus [34] = assay: Antibacterial activity against Staphylococcus aureus 33591; assay type: functional
[35] = tested on: Staphylococcus epidermidis; assay: Antibacterial activity against Staphylococcus epidermidis 14990; assay type: functional
[36] = tested on: Staphylococcus epidermidis; assay: Antibacterial activity against Staphylococcus epidermidis f50654; assay type: functional
Enterococcus faecalis [37] = assay: Antibacterial activity against Enterococcus faecalis 29212; assay type: functional
Enterococcus faecalis [38] = assay: Antibacterial activity against Enterococcus faecalis bc11148-2; assay type: functional
Streptococcus pyogenes = assay: Antibacterial activity against Streptococcus pyogenes 8668; assay type: functional
Streptococcus pneumoniae [39] = assay: Antibacterial activity against Streptococcus pneumoniae 49619; assay type: functional
Streptococcus pneumoniae [40] = assay: Antibacterial activity against Streptococcus pneumoniae 297-749; assay type: functional
Streptococcus pneumoniae [41] = assay: Antibacterial activity against Streptococcus pneumoniae 280-962; assay type: functional
Streptococcus pneumoniae [42] = assay: Antibacterial activity against Streptococcus pneumoniae Erm 6849; assay type: functional
Streptococcus pneumoniae [43] = assay: Antibacterial activity against Streptococcus pneumoniae Mef 5654; assay type: functional
Streptococcus pneumoniae [44] = assay: Antibacterial activity against Streptococcus pneumoniae Mef S 3427; assay type: functional
Haemophilus influenzae [45] = assay: Antibacterial activity against Haemophilus influenzae 49247; assay type: functional
[46] = Lung half life in Sprague-Dawley rat at 15 mg/kg, po; assay type: ADME, organism-based; parameters: dose 15 mg/kg, route oral
[47] = Oral bioavailability in Sprague-Dawley rat at 100 mg/kg, po; assay type: ADME, organism-based; details: in vivo
Rattus norvegicus [48] = assay: Efficacy against Streptococcus pneumoniae Erm in Sprague-Dawley rat lung infection model at 100 mg/kg; assay type: functional, organism-based; parameters: dose 100 mg/kg
Rattus norvegicus [49] = assay: Efficacy against Haemophilus influenzae in Sprague-Dawley rat lung infection model at 100 mg/kg; assay type: functional, organism-based; parameters: dose 100 mg/kg
Rattus norvegicus [50] = assay: Efficacy against Streptococcus pneumoniae Mef in Sprague-Dawley rat lung infection model at 100 mg/kg; assay type: functional, organism-based; parameters: dose 100 mg/kg
[51] = Lung-to-plasma AUC ratio in Sprague-Dawley rat at 5 mg/kg, iv; assay type: ADME, organism-based; parameters: dose 5 mg/kg, route intravenous; details: lung and plasma
[52] = Clearance in Sprague-Dawley rat at 5 mg/kg, iv and 15 mg/kg, po; assay type: ADME, organism-based; details: in vivo
[53] = Volume of distribution in Sprague-Dawley rat at 5 mg/kg, iv and 15 mg/kg, po; assay type: ADME, organism-based; details: in vivo, read-out: Vdss
Streptococcus pneumoniae [54] = assay: Antibacterial activity against Streptococcus pneumoniae Mef 5649; assay type: functional
Streptococcus pneumoniae [55] = assay: Antibacterial activity against Streptococcus pneumoniae Mef S 3435; assay type: functional
Streptococcus pneumoniae [56] = assay: Antibacterial activity against Streptococcus pneumoniae Mef 41; assay type: functional
Streptococcus pneumoniae [57] = assay: Antibacterial activity against Streptococcus pneumoniae Mef 953; assay type: functional
Streptococcus pneumoniae [58] = assay: Antibacterial activity against Streptococcus pneumoniae Mef 983; assay type: functional
Streptococcus pneumoniae [59] = assay: Antibacterial activity against Streptococcus pneumoniae Mef 1556; assay type: functional
Streptococcus pneumoniae [60] = assay: Antibacterial activity against Streptococcus pneumoniae Mef 1566; assay type: functional

## CC[C@H]1OC(=O)[C@H](C)C(=O)[C@H](C)[C@@H](O[C@@H]2O[C@H](C)C[C@H](N(C)C)[C@H]2O)[C@](C)(OC)C[C@@H](C)C(=O)[C@H](C)[C@H]2N(CCCCn3cnc(-c4cccnc4)c3)C(=O)O[C@]12C [TELITHROMYCIN]
Streptococcus pneumoniae [1]
  MIC: 0.5 µg/mL (≈ 0.616 µM)
Streptococcus pneumoniae [2]
  MIC: 0.25 µg/mL (≈ 0.308 µM)
Streptococcus pneumoniae [3]
  MIC: 0.13 µg/mL (≈ 0.16 µM)
Streptococcus pneumoniae [4]
  MIC: 0.25 µg/mL (≈ 0.308 µM)
Streptococcus pneumoniae [5]
  MIC: 0.25 µg/mL (≈ 0.308 µM)
Streptococcus pneumoniae [6]
  MIC: 0.06 µg/mL (≈ 0.0739 µM)
Streptococcus pneumoniae [7]
  MIC: 1 µg/mL (≈ 1.23 µM)
Streptococcus pneumoniae [8]
  MIC: 0.25 µg/mL (≈ 0.308 µM)
Streptococcus pneumoniae [9]
  MIC: 0.5 µg/mL (≈ 0.616 µM)
Streptococcus pneumoniae [10]
  MIC: 0.25 µg/mL (≈ 0.308 µM)
Streptococcus pneumoniae [11]
  MIC: 0.06 µg/mL (≈ 0.0739 µM)
Streptococcus pneumoniae [12]
  MIC: 0.1 µg/mL (≈ 0.123 µM)
Streptococcus pneumoniae [13]
  MIC: 0.78 µg/mL (≈ 0.961 µM)
Streptococcus pneumoniae [14]
  MIC: 0.1 µg/mL (≈ 0.123 µM)
Streptococcus pneumoniae [15]
  MIC: ≤ 0.013 µg/mL
Streptococcus pneumoniae [16]
  MIC: 0.025 µg/mL (≈ 0.0308 µM)
Streptococcus pneumoniae [17]
  MIC: 0.025 µg/mL (≈ 0.0308 µM)
Streptococcus pneumoniae [18]
  MIC: 0.1 µg/mL (≈ 0.123 µM)
Streptococcus pneumoniae [19]
  MIC: ≤ 0.013 µg/mL
Streptococcus pneumoniae [20]
  MIC: 0.025 µg/mL (≈ 0.0308 µM)
Streptococcus pneumoniae [21]
  MIC: 0.025 µg/mL (≈ 0.0308 µM)
Streptococcus pneumoniae [22]
  MIC: ≤ 0.013 µg/mL
Streptococcus pneumoniae [23]
  MIC: 0.025 µg/mL (≈ 0.0308 µM)
Streptococcus pneumoniae [24]
  MIC: 0.2 µg/mL (≈ 0.246 µM)
Streptococcus pneumoniae [25]
  MIC: ≤ 0.013 µg/mL
Streptococcus pneumoniae [26]
  MIC: ≤ 0.013 µg/mL
Streptococcus pneumoniae [27]
  MIC: 0.78 µg/mL (≈ 0.961 µM)
Streptococcus pneumoniae [28]
  MIC: 0.025 µg/mL (≈ 0.0308 µM)
Haemophilus influenzae [29]
  MIC: 0.4 µg/mL (≈ 0.493 µM)
Streptococcus pneumoniae [30]
  MIC: 0.1 µg/mL (≈ 0.123 µM)
Streptococcus pneumoniae [31]
  MIC: 0.025 µg/mL (≈ 0.0308 µM)
Streptococcus pneumoniae [32]
  MIC: ≤ 0.013 µg/mL
Staphylococcus aureus [33]
  MIC: 0.1 µg/mL (≈ 0.123 µM)
Staphylococcus aureus [34]
  MIC: > 50 µg/mL
[35]
  MIC: 0.1 µg/mL (≈ 0.123 µM)
[36]
  MIC: 0.1 µg/mL (≈ 0.123 µM)
Enterococcus faecalis [37]
  MIC: ≤ 0.05 µg/mL
Enterococcus faecalis [38]
  MIC: 0.4 µg/mL (≈ 0.493 µM)
Streptococcus pyogenes
  MIC: ≤ 0.05 µg/mL
Streptococcus pneumoniae [39]
  MIC: ≤ 0.05 µg/mL
Streptococcus pneumoniae [40]
  MIC: ≤ 0.05 µg/mL
Streptococcus pneumoniae [41]
  MIC: ≤ 0.05 µg/mL
Streptococcus pneumoniae [42]
  MIC: 0.2 µg/mL (≈ 0.246 µM)
Streptococcus pneumoniae [43]
  MIC: 0.5 µg/mL (≈ 0.616 µM)
Streptococcus pneumoniae [44]
  MIC: 0.13 µg/mL (≈ 0.16 µM)
Haemophilus influenzae [45]
  MIC: 3.13 µg/mL (≈ 3.85 µM)
[46]
  half-life: 1.3 h
[47]
  bioavailability: 84%
Rattus norvegicus [48]
  Activity: inactive
Rattus norvegicus [49]
  Activity: inactive
Rattus norvegicus [50]
  Activity: inactive
[51]
  Kp: 16
[52]
  clearance: 100 mL/min/kg
[53]
  Vd: 5 L/kg
Streptococcus pneumoniae [54]
  MIC: 0.5 µg/mL (≈ 0.616 µM)
Streptococcus pneumoniae [55]
  MIC: 0.06 µg/mL (≈ 0.0739 µM)
Streptococcus pneumoniae [56]
  MIC: 0.13 µg/mL (≈ 0.16 µM)
Streptococcus pneumoniae [57]
  MIC: 0.13 µg/mL (≈ 0.16 µM)
Streptococcus pneumoniae [58]
  MIC: 0.5 µg/mL (≈ 0.616 µM)
Streptococcus pneumoniae [59]
  MIC: 0.13 µg/mL (≈ 0.16 µM)
Streptococcus pneumoniae [60]
  MIC: 0.5 µg/mL (≈ 0.616 µM)

Source: ChEMBL document CHEMBL1138190, “Synthesis and antibacterial activity of novel C12 vinyl ketolides” (J Med Chem, 2006)
